According to patent US9814754B2, “Combinations with a backbone-cyclized peptide” (POLYPHOR AG, priority 2012, dated 2017):
Square brackets hold non-standard residues; d marks the D form. dDab = NCC[C@@H](N)C(=O)O; Orn = NCCC[C@H](N)C(=O)O; Dab = NCC[C@H](N)C(=O)O

Columns and labels:
Assay type in all cases: in vivo
[1] = system: Pseudomonas aeruginosa clinical isolate PA18298; test: Murine pneumonia model, compound 1 in combination with amikacin (Example 4); conditions: murine lungs
Protocol: The efficacy and ED50 of the compound of formula (I) (“compound 1”) in combination with amikacin was determined against Pseudomonas aeruginosa clinical isolate PA18298 in a pneumonia model in mice. Colony counts in lung were determined at 20 hours post treatment.
(§1) Fresh overnight colonies of PA18298 from a 5% Horse Blood Agar plate were suspended in 0.9% sterile saline to approximately 10^8 CFU/ml and further diluted to approximately 5×10^7 CFU/ml. Female mice (DBA/2, outbred, 18-22 g, Charles River) were anesthetized with 0.1 ml of Zoletil and inoculated via the nose with a pipette with 0.05 ml of the bacteria suspension containing approximately 10^6 CFU. 4 hours after inoculation, the mice were treated orally with 45 μl neurophen (20 mg ibuprofen/ml corresponding to approximately 30 mg/kg) as pain relief.
175 mg of amikacin (Sigma) were dissolved in 5 ml 0.9% sterile saline to a concentration of 35 mg/ml and further diluted with saline to 3 mg/ml. The mice were treated subcutaneously with 0.2 ml in the neck region with a single dose at 3 hours post infection corresponding to 30 mg/kg on the basis of a mean animal weight of 20 g.
One vial containing 10 mg of active compound 1 was dissolved in 2 ml 0.9% sterile saline to a concentration of 5 mg/ml and further diluted with saline […], 1, 0.55, 0.275 and 0.137 mg/ml. The mice were treated subcutaneously with 0.2 ml in the neck region with a single dose at 4 hours post infection with a dose calculation based on a mean animal weight of 20 g. Colistin was used as a control in the same manner with a fixed dose of 20 mg/kg.
(§2) Colony counts were determined post inoculation at 4 hours (untreated mice) and 24 hours (treated and vehicle-only treated mice). Immediately after the mice were sacrificed, the lungs were collected and frozen at −20° C. After thawing, the organs were homogenized in 1 ml 0.9% saline. Each sample was then 10 fold diluted in saline and 20 μl spots were applied on blood agar plates. All agar plates were incubated 18-24 hours at 35° C. in ambient air.
The CFU/ml in the inoculum was determined to 7.4 log10 CFU/ml corresponding to 6.17 log10 CFU/mouse.
At 4 hours after inoculation the mean log 10 CFU/lung was 5.06 and the CFU level declined to 1.55 mean log 10 CFU/lung after 24 hours in the vehicle group.

[2] = system: Pseudomonas aeruginosa clinical isolate PAX11045; test: Murine pneumonia model, compound 1 alone (Reference 1)
Protocol: Efficacy in Murine Pneumonia Model Against Pseudomonas aeruginosa PAX11045 and Estimation of ED50
The efficacy and ED50 of the compound of formula (I) (“compound 1”) was determined against Pseudomonas aeruginosa clinical isolate PAX11045 in a pneumonia model in mice. Colony counts in the lungs and spleen were determined at 20 hours post treatment.
as §1, with “PAX11045” for “PA18298”, “0.08” for “0.1”, “Zoletil (tiletamine+zolazepam)” for “Zoletil”
One vial was further 2-fold diluted with saline to 2.25, 1.125, 0.56 and 0.28 mg/ml. The mice were treated subcutaneously with 0.2 ml in the neck region with a single dose at 4 hours post infection with a dose calculation based on a mean animal weight of 20 g.
as §2, with “lungs and spleens” for “lungs”, “10-fold” for “10 fold”, “18-48” for “18-24”

[3] = system: Pseudomonas aeruginosa clinical isolate PA18298; test: Murine pneumonia model, compound 1 alone (Reference 3)
Protocol: Efficacy in Murine Pneumonia Model Against Pseudomonas aeruginosa PA18298 and Estimation of ED50
The efficacy and ED50 of the compound of formula (I) (“compound 1”) was determined against Pseudomonas aeruginosa clinical isolate PA18298 in a pneumonia model in mice. Colony counts in the lungs were determined at 18-20 hours post treatment.
as §1, with “4×10^7” for “5×10^7”, “Zoletil (tiletamine+zolazepam)” for “Zoletil”, “1×10^6” for “10^6”
One vial containing 10 mg of active compound 1 was dissolved in 2 ml 0.9% sterile saline to a concentration of 5 mg/ml and was further diluted with saline to 2, 1, 0.75, 0.55, 0.275 and 0.137 mg/ml. The mice were treated subcutaneously with 0.2 ml in the neck region with a single dose at 4 hours post infection with a dose calculation based on a mean animal weight of 20 g. As positive control colistin was used in the same manner with a fixed dose of 20 mg/kg.
as §2, with “10-fold” for “10 fold”, “18-48” for “18-24”
The CFU/ml in the inoculum was determined to 7.49 log10 CFU/ml corresponding to 6.20 log10 CFU/mouse.
At 4 hours after infection the mean log10 CFU/lung was 5.05 and the CFU level declined to 2.62 at 24 hours post inoculation in the vehicle-only group.

[4] = in presence of 30 mg/kg amikacin
[5] = compound 1 alone, s.c. single dose 4 h post infection, murine lungs
[6] = compound 1 alone, s.c., murine lungs
[7] = compound 1 alone, s.c., murine lungs, sigmoidal dose-response model (variable slope)

For “cyclo(TWI[Dab][Orn][dDab][Dab]W[Dab][Dab]AS[dP]P) [compound 1]”, the Top level ([1]; compound 1 s.c. in presence of 30 mg/kg amikacin (s.c., 3 h post infection)) was −3.03 log10 CFU/ml, the Bottom level [1, 4] was −3.82 log10 CFU/ml and the Emax [1, 4] was 0.79 log10 CFU/ml. The ED50 ([1]; in presence of fixed dose of 30 mg/kg amikacin) was 9.1 mg/kg, the Bottom level [2, 5] was −2.2 log10 CFU/ml and the Top level ([2]; compound 1 alone, s.c. single dose 4 h post infection, murine lungs, sigmoidal dose-response model) was 1.3 log10 CFU/ml. For the same substance, the “1 log killing dose” value [2, 6] was 8.1 mg/kg, the “2 log killing dose” value [2, 6] was 20 mg/kg and the Emax [2, 6] was 3.5 log10 CFU/ml. For the same substance, the Static dose [2, 6] was 1.55 mg/kg, the ED50 [2, 7] was 4.33 mg/kg and the “CFU levels compared to vehicle treatment” value ([2]; compound 1 s.c. dose series, both organs (lungs and spleen), p<0.001 for the higher concentrations) was “concentration dependent significant reduction of the CFU levels”. The “CFU levels compared to vehicle treatment” value ([3]; 11-20 mg/kg, lungs, p<0.01-p<0.001) was “significant reduction of the CFU levels”, the Top level [3, 5] was −3.60 log10 CFU/ml and the Bottom level [3, 6] was −2.48 log10 CFU/ml. It also gave an Emax [3, 6] of 1.12 log10 CFU/ml, a Static dose [3, 6] of 9.15 mg/kg and an ED50 [3, 7] of 26.6 mg/kg.
